One test has as its system MDA-MB-436. Nature of the test: Viability assay, BRCA1 mutant cell line MDA-MB-436. Particulars: Homo sapiens, MDA-MB-436, viability, BRCA1 mutant MDA-MB-436; read-out: MDA-MB-436 rel IC50. The test is classed as cell-based. An excerpt: (§1) Table 1 also indicates IC50 values in a viability assay for a non-isogenic pair of BRCA1 mutant (column 5-MDA-MB-436) and BRCA1 WT (column 6—HCC1954) cell lines. These values indicate the effect of treatment with compound on cell survival.

Another test deals with USP1-UAF1 (Homo sapiens, UniProt O94782). Nature of the test: Ubiquitin Rhodamine assay of USP1-UAF1 activity. Type of test: biochemical. As for the experimental part:
Certain compounds of the disclosure were assessed for USP1-UAF1 activity in a Ubiquitin Rhodamine assay as described in Biology Example 1.

For the next test, the system named is HCC1954. Nature of the test: Viability assay, BRCA1 WT cell line HCC1954. Type of test: cell-based. Particulars: read-out: HCC1954 rel IC50.
From the text: as §1

In a further test the test system is monoubiquitinated PCNA. In words: AlphaLISA assay measuring monoubiquitinated PCNA in MDA-MB-436. The test is classed as cell-based. Particulars: Homo sapiens, MDA-MB-436, monoubiquitinated PCNA, read-out: Alpha Lisa IC50. An excerpt:
Table 1 also indicates IC50 values for exemplary compounds in an AlphaLISA assay measuring monoubiquitinated PCNA in a BRCA1 mutant cell line (MDA-MB-436; column 7).
(In general: Bead proximity is the source of the signal in Alpha formats.)

Setting [1] is: Homo sapiens, HCC1954, viability.

Read-outs that look alike come from different tables or passages of the source.

For orientation: IC50 means the point on the concentration scale where inhibition reaches its midpoint.

USP1-UAF1, sequence (O94782 whole entry): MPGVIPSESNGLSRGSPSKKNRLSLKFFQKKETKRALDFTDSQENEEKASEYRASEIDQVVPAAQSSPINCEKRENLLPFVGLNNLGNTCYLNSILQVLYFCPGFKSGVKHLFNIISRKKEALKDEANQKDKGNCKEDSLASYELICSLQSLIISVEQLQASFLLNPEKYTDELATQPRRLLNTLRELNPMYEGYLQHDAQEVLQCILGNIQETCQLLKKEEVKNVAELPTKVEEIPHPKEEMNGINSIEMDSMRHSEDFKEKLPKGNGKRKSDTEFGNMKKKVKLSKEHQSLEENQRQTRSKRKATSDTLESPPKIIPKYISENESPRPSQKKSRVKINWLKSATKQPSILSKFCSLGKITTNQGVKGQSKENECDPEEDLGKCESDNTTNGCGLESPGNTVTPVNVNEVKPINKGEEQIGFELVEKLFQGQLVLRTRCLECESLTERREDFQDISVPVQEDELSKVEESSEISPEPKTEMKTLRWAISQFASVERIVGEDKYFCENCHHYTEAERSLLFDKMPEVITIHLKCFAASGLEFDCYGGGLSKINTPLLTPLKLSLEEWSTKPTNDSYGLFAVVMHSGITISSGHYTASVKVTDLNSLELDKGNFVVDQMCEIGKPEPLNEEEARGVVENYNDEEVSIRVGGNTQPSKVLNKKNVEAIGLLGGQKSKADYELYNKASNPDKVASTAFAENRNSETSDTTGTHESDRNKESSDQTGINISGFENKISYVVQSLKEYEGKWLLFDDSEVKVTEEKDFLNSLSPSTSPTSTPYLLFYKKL
USP1-UAF1, sequence (Q8TAF3 whole entry partner): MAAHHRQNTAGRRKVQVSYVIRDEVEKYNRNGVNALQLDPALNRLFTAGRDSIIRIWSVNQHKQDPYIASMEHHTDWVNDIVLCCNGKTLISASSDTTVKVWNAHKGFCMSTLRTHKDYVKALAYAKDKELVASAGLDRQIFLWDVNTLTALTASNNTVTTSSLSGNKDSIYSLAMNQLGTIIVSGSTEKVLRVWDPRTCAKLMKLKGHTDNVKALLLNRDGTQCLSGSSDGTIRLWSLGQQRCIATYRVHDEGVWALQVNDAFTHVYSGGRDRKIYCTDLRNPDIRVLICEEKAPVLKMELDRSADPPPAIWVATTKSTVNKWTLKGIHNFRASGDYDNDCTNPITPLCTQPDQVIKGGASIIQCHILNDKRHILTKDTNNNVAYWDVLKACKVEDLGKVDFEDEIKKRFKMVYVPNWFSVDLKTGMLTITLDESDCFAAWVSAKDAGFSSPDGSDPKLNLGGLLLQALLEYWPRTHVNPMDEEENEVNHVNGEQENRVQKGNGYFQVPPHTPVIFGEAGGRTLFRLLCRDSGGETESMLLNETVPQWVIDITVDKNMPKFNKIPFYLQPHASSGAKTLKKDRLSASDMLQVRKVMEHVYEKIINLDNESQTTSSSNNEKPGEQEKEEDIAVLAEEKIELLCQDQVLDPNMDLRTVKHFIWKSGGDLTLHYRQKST

Turning to `Cc1nc(-c2cccc(F)c2C(C)C)nc2c1n(C)c(=N)n2Cc1ccc(-c2nc(Cl)cn2C)cc1` [Example A-28, 9-(4-(4-chloro-1-methyl-1H-imidazol-2-yl)benzyl)-2-(3-fluoro-2-isopropylphenyl)-6,7-dimethyl-7,9-dihydro-8H-purin-8-imine], the IC50 in the test with MDA-MB-436 was below 100 nM; at USP1-UAF1 it was below 30 nM; with HCC1954 (setting [1]), at least 10000 nM; with monoubiquitinated PCNA it was below 100 nM.

With `CC(C)c1ccccc1-c1ncc2c(n1)n(Cc1ccc(-c3ncc(C(F)(F)F)n3C)cc1)c(=N)n2C` [Example A-1, 2-(2-isopropylphenyl)-7-methyl-9-(4-(J-methyl-5-(trifluoromethyl)-1H-imidazol-2-yl)benzyl)-7H-purin-8(9H)-imine], the IC50 in the test with MDA-MB-436 was 250 to 10000 nM; against USP1-UAF1, 100 to 10000 nM; with HCC1954 (setting [1]) it was 250 to 10000 nM; in the test on monoubiquitinated PCNA, 250 to 10000 nM.

Consider `[2H]C([2H])([2H])Oc1ncnc(C2CC2)c1-c1ncc2c(n1)n(Cc1ccc(-c3nc(C(F)(F)F)cn3C(C)C)cc1)c(=N)n2CC(F)(F)F` [Example T-135, 2-[4-cyclopropyl-6-(trideuteriomethoxy)pyrimidin-5-yl]-9-[[4-[1-isopropyl-4-(trifluoromethyl)imidazol-2-yl]phenyl]methyl]-7-(2,2,2-trifluoroethyl)purin-8-imine], for which the IC50 in the test with MDA-MB-436 was below 100 nM; against USP1-UAF1, 30 to 100 nM; in the test on HCC1954 (setting [1]), at least 10000 nM; in the test on monoubiquitinated PCNA it was 100 to 250 nM.

For `COc1nc(C#N)ccc1-c1ncc2c(n1)n(Cc1ccc(-c3nc(C(F)(F)F)cn3C)cc1)c(=N)n2C` [Example T-085], the IC50 in the test with MDA-MB-436 is 250 to 10000 nM; against USP1-UAF1 it was 100 to 10000 nM; in the test with HCC1954 (setting [1]), 250 to 10000 nM; in the test on monoubiquitinated PCNA, 250 to 10000 nM.

For `CCn1c(=N)n(Cc2ccc(-c3nc(C(F)(F)F)cn3C)cc2)c2nc(-c3c(OC)ncnc3C3CC3)ncc21` [Example T-139, 2-(4-cyclopropyl-6-methoxy-pyrimidin-5-yl)-7-ethyl-9-[[4-[1-methyl-4-(trifluoromethyl)imidazol-2-yl]phenyl]methyl]purin-8-imine], the IC50 with MDA-MB-436 is below 100 nM; at USP1-UAF1, 30 to 100 nM; with HCC1954 (setting [1]), at least 10000 nM; in the test on monoubiquitinated PCNA, below 100 nM.

On to `Cc1cccc(C(C)C)c1-c1ncc2c(n1)n(Cc1ccc(-c3nc(C(F)(F)F)cn3C)cc1)c(=N)n2C` [Example T-015, 2-(2-isopropyl-6-methyl-phenyl)-7-methyl-9-[[4-[1-methyl-4-(trifluoromethyl)imidazol-2-yl]phenyl]methyl]purin-8-imine], for which the IC50 is 100 to 250 nM in the test with MDA-MB-436, below 30 nM on USP1-UAF1, at least 10000 nM with HCC1954 (setting [1]) and 100 to 250 nM in the test on monoubiquitinated PCNA.

`CCOc1ncnc(C2CC2)c1-c1ncc2c(n1)n(Cc1ccc(-c3nc(C(F)(F)F)cn3C)cc1)c(=N)n2CC(F)(F)F` [Example T-119, 2-(4-cyclopropyl-6-ethoxy-pyrimidin-5-yl)-9-[[4-[1-methyl-4-(trifluoromethyl)imidazol-2-yl]phenyl]methyl]-7-(2,2,2-trifluoroethyl)purin-8-imine]: the IC50 in the test on MDA-MB-436 was 100 to 250 nM; at USP1-UAF1, 100 to 10000 nM; in the test on HCC1954 (setting [1]), at least 10000 nM; in the test on monoubiquitinated PCNA, 100 to 250 nM.

`Cn1cc(C(F)(F)F)nc1-c1ccc(Cn2c(=N)n(C)c3cnc(-c4c(OC(F)(F)F)ccnc4C4CC4)nc32)cc1` [Example T-140, 2-[2-cyclopropyl-4-(trifluoromethoxy)-3-pyridyl]-7-methyl-9-[[4-[1-methyl-4-(trifluoromethyl)imidazol-2-yl]phenyl]methyl]purin-8-imine]: the 50% inhibitory concentration (IC50) was below 100 nM with MDA-MB-436, 30 to 100 nM on USP1-UAF1, at least 10000 nM in the test on HCC1954 (setting [1]) and below 100 nM in the test on monoubiquitinated PCNA.

Take `COc1ncnc(C2CC2)c1-c1ncc2c(n1)n(Cc1ccc(-n3nc(C(F)F)cc3OC)cc1)c(=N)n2CC(F)(F)F` [Example T-100, 2-(4-cyclopropyl-6-methoxy-pyrimidin-5-yl)-9-[[4-[3-(difluoromethyl)-5-methoxy-pyrazol-1-yl]phenyl]methyl]-7-(2,2,2-trifluoroethyl)purin-8-imine]: the IC50 was 100 to 250 nM with MDA-MB-436, 100 to 10000 nM at USP1-UAF1, at least 10000 nM in the test with HCC1954 (setting [1]) and 100 to 250 nM with monoubiquitinated PCNA.

`COc1ncnc(OC)c1-c1ncc2c(n1)n(Cc1ccc(-c3nc(C(F)(F)F)cn3C)cc1)c(=N)n2CC(F)(F)F` [Example T-110, 2-(4,6-dimethoxypyrimidin-5-yl)-9-[[4-[1-methyl-4-(trifluoromethyl)imidazol-2-yl]phenyl]methyl]-7-(2,2,2-trifluoroethyl)purin-8-imine]: the IC50 with MDA-MB-436 was 100 to 250 nM; at USP1-UAF1 it was 30 to 100 nM; in the test on HCC1954 (setting [1]) it was at least 10000 nM; with monoubiquitinated PCNA, 250 to 10000 nM.

In the case of `COCCn1c(=N)n(Cc2ccc(-c3nc(C(F)(F)F)cn3C)cc2)c2nc(-c3ccccc3C(C)C)ncc21` [Example T-016], the IC50 is below 100 nM with MDA-MB-436, below 30 nM on USP1-UAF1, at least 10000 nM in the test with HCC1954 (setting [1]) and below 100 nM in the test with monoubiquitinated PCNA.

Turning to `CC(C)c1ccccc1-c1ncc2c(n1)n(C(C)C1CCN(c3nc(Cl)cn3C)CC1)c(=N)n2C` (single isomer, unassigned) [Example A-26c, 9-(1-(1-(4-chloro-1-methyl-1H-imidazol-2-yl)piperidin-4-yl)ethyl)-2-(2-isopropylphenyl)-7-methyl-7,9-dihydro-8H-purin-8-imine], the IC50 in the test with MDA-MB-436 is 250 to 10000 nM; against USP1-UAF1, 100 to 10000 nM; with HCC1954 (viability) it was 250 to 10000 nM; in the test on monoubiquitinated PCNA, 250 to 10000 nM.

Regarding `COc1ncccc1-c1ncc2c(n1)n(Cc1ccc(-c3nc(C(F)(F)F)cn3CC(F)F)cc1)c(=N)n2C` [Example T-060], the half-inhibitory concentration (IC50) was at least 10000 nM with MDA-MB-436, 100 to 10000 nM against USP1-UAF1, at least 10000 nM with HCC1954 (setting [1]) and 250 to 10000 nM in the test on monoubiquitinated PCNA.

With `CC(C)c1ccccc1-c1nc(C(F)(F)F)c2c(n1)n(Cc1ccc(-c3nc(C(F)(F)F)cn3C)cc1)c(=N)n2C` [Example T-084], the concentration for half-maximal inhibition (IC50) with MDA-MB-436 was 100 to 250 nM; on USP1-UAF1 it was below 30 nM; with HCC1954 (setting [1]), 250 to 10000 nM; in the test on monoubiquitinated PCNA it was 100 to 250 nM.

Turning to `Cn1cc(C(F)(F)F)nc1-c1ccc(Cn2c(=N)n(C)c3cnc(-c4c(C5CC5)ncnc4C(F)(F)F)nc32)cc1` [Example T-103, 2-(4-cyclopropyl-6-(trifluoromethyl)pyrimidin-5-yl)-7-methyl-9-(4-(1-methyl-4-(trifluoromethyl)-1H-imidazol-2-yl)benzyl)-7H-purin-8(9H)-imine], the IC50 in the test with MDA-MB-436 is 100 to 250 nM; against USP1-UAF1, 30 to 100 nM; in the test with HCC1954 (setting [1]), at least 10000 nM; with monoubiquitinated PCNA it was 100 to 250 nM.

`[2H]C([2H])([2H])Oc1ncnc(C2CC2)c1-c1ncc2c(n1)n(Cc1ccc(-c3nc(C(F)(F)F)cn3C)c(CC)c1)c(=N)n2CC(F)(F)F` [Example T-105, 2-[4-cyclopropyl-6-(trideuteriomethoxy)pyrimidin-5-yl]-9-[[3-ethyl-4-[1-methyl-4-(trifluoromethyl)imidazol-2-yl]phenyl]methyl]-7-(2,2,2-trifluoroethyl)purin-8-imine]: the IC50 with MDA-MB-436 is 250 to 10000 nM; on USP1-UAF1, 100 to 10000 nM; in the test on HCC1954 (setting [1]) it was at least 10000 nM; with monoubiquitinated PCNA, 250 to 10000 nM.

(Values after US20240059689A1, “PURINE DERIVATIVES AS ANTICANCER AGENTS” (Tango Therapeutics, Inc., priority 2021, published 2024).)
